Reference: patent US20240101599A1, “PEPTIDE, CELL GROWTH PROMOTER, PROTEIN PRODUCTION PROMOTER, CULTURE MEDIUM, CELL GROWTH METHOD USING PEPTIDE, AND PROTEIN PRODUCTION METHOD USING PEPTIDE” (Maruhachi Muramatsu, Inc., priority 2020, published 2024)
Like-named read-outs stand apart in the source and are kept apart here. Peptide text beside a SMILES is read from it.

What was measured:
CHO DP-12 [1] = conditions: 5 days; for Viable cell count: n=3; for Amount of protein produced: n=3, ELISA
Description: A cell suspension prepared such that CHO DP-12 (ATCC, Cat. No. CRL-12445) was at 2×10^4 cells/mL was seeded in a 24-well plate at 1×10^4 cells/well (500 μL) and cultured in an incubator at 37° C. and 5% CO2 for 24 hours. As a culture medium, a DMEM basal medium in which 200 nM of methotrexate and 2 μg/mL of insulin were blended in a DMEM culture medium (Gibco) containing 10% FBS was used.
After removing the culture medium from each well and washing with the DMEM basal medium (500 μL), each peptide solution (500 μL) was dispensed to each well (total 500 μL/well) to perform culture for 5 days.
After replacing each culture medium with an evaluation medium of the following test section, culture was performed in an incubator at 37° C. and 5% CO2 for 5 days.
• DMEM basal medium • AGK (1 mM)+DMEM basal medium • AGK (2 mM)+DMEM basal medium • Medium supplemented with vitamins and nucleic acids (DMEM basal medium+vitamin+nucleic acid) • AGK (1 mM)+medium supplemented with vitamins and nucleic acids • AGK (2 mM)+medium supplemented with vitamins and nucleic acids
After 5 days of culture, the total amount of the culture medium in each well of the 24-well plate was recovered, a centrifugation operation (5,000 rpm, for 5 minutes) was performed, and the supernatant was separately recovered to measure the amount of produced protein by ELISA.
The cells adhered to the wells after recovering the culture medium were detached by trypsin treatment and suspended again in the DMEM basal medium containing 10% FBS to measure the viable cell count and the viability by a trypan blue staining method using a cell counter.

CHO DP-12 [2] = assay: Cell growth test and protein production test when peptide was added to total synthesis medium; type: cell-based; conditions: for Viability, Average / Viable cell count, Average / Amount of protein produced, Average: average n=3; for Viability, Average / Viable cell count, Average / Amount of protein produced, Average / Viability, 1 / Viable cell count, 1 / Amount of protein produced, 1 / Viability, 2 / Viable cell count, 2 / Amount of protein produced, 2 / Viability, 3 / Viable cell count, 3 / Amount of protein produced, 3: ASF104 basal medium, 5 days; for Amount of protein produced, Average / Amount of protein produced, 1 / Amount of protein produced, 2 / Amount of protein produced, 3: ELISA; for Viability, 1 / Viable cell count, 1 / Amount of protein produced, 1: replicate 1; for Viability, 2 / Viable cell count, 2 / Amount of protein produced, 2: replicate 2; for Viability, 3 / Viable cell count, 3 / Amount of protein produced, 3: replicate 3
Description: A peptide having the sequence of Gly-Glu-Lys (GEK) was synthesized to prepare peptide solutions at the concentrations of 0 mM, 2.6 mM, 5.1 mM, 10 mM, 20.5 mM, and 41 mM, and an amount of 1/10 of the total culture medium volume was added to each well immediately before the cell culture test such that final concentrations were 0 mM, 0.26 mM, 0.51 mM, 1.0 mM, 2.05 mM, and 4.1 mM, respectively. In the present test, CHO DP-12 (ATCC, Cat. No. CRL-12445) acclimated to an ASF104 basal medium in which 200 nM of methotrexate and 2 μg/mL of insulin were blended in an ASF104 culture medium (Ajinomoto Co., Inc.), which is a total synthesis medium for CHO, was used. A cell suspension prepared such that a cell concentration was 4×10^4 cells/mL was seeded in a 24-well plate at 450 μL/well and cultured in an incubator at 37° C. and 5% CO2 for 24 hours. As a culture medium, an ASF104 basal medium in which 200 nM of methotrexate and 2 μg/mL of insulin were blended in an ASF104 culture medium (Ajinomoto Co., Inc.), which is a total synthesis medium for CHO, was used.
After 24 hours, 50 μL of the prepared peptide solution was added to each well to perform culture for 5 days. The cells were recovered after culture to count the viable cell count.
• ASF104 basal medium • GEK (0.26 mM)+ASF104 basal medium • GEK (0.51 mM)+ASF104 basal medium • GEK (1.0 mM)+ASF104 basal medium • GEK (2.05 mM)+ASF104 basal medium • GEK (4.1 mM)+ASF104 basal medium
100 μL of the culture medium supernatant was collected in a 1.5 mL tube to quantitatively determine the amount of protein produced. The supernatant was diluted to measure the amount of protein produced by ELISA.
In order to analyze the cells, the culture medium in each well was recovered in a 1.5 mL tube to be rinsed with 200 μL of PBS, and the rinsed liquid was also recovered in the same 1.5 mL tube. Thereafter, 100 μL of 0.25% trypsin/EDTA was added to perform incubation for 1 minute. 100 μL of a trypsin inhibitor was added to recover in the same 1.5 mL tube. After rinsing with 200 μL of PBS to recover the rinsed liquid in the same 1.5 mL tube, a centrifugation operation was performed. Suspension was performed in 100 μL of PBS to measure the viable cell count and the cell viability by a trypan blue staining method using a cell counter.
The above preparation, culture, and measurement were performed with n=3. Table 28 and FIG. 27 show the viable cell count in each peptide solution, Table 29 and FIG. 28 show the cell viability in each peptide solution, and Table 30 and FIG. 29 show the amount of protein produced.

[3] = 1 mM AGK + medium supplemented with vitamins and nucleic acids
[4] = 2 mM AGK + medium supplemented with vitamins and nucleic acids

SMILES: C[C@H](N)C(=O)NCC(=O)N[C@@H](CCCCN)C(=O)O [AGK, Ala-Gly-Lys] (H-Ala-Gly-Lys-OH; N-terminus and C-terminus assumed)
- Viable cell count (CHO DP-12 [1]; 1 mM AGK + DMEM basal medium): 11.97 ×10^4cells/well
- Amount of protein produced (CHO DP-12 [1]; 1 mM AGK + DMEM basal medium): 7.5 mg/L
- Viable cell count (CHO DP-12 [1]; [3]): 34.65 ×10^4cells/well
- Amount of protein produced (CHO DP-12 [1]; [3]): 15.74 mg/L
- Viable cell count (CHO DP-12 [1]; 2 mM AGK + DMEM basal medium): 11.73 ×10^4cells/well
- Amount of protein produced (CHO DP-12 [1]; 2 mM AGK + DMEM basal medium): 7.4 mg/L
- Viable cell count (CHO DP-12 [1]; [4]): 47.07 ×10^4cells/well
- Amount of protein produced (CHO DP-12 [1]; [4]): 14.34 mg/L

SMILES: NCCCC[C@H](NC(=O)[C@H](CCC(=O)O)NC(=O)CN)C(=O)O [GEK, Gly-Glu-Lys] (H-Gly-Glu-Lys-OH; N-terminus and C-terminus assumed)
- Viability, Average (CHO DP-12 [2]; 0.26 mM GEK): 97.0%
- Viable cell count, Average (CHO DP-12 [2]; 0.26 mM GEK): 1.6 ×10^6 cells/well
- Amount of protein produced, Average (CHO DP-12 [2]; 0.26 mM GEK): 12.5 mg/L
- Viability, 1 (CHO DP-12 [2]; 0.26 mM GEK): 96%
- Viable cell count, 1 (CHO DP-12 [2]; 0.26 mM GEK): 1.6 ×10^6 cells/well
- Amount of protein produced, 1 (CHO DP-12 [2]; 0.26 mM GEK): 12.2 mg/L
- Viability, 2 (CHO DP-12 [2]; 0.26 mM GEK): 99%
- Viable cell count, 2 (CHO DP-12 [2]; 0.26 mM GEK): 1.5 ×10^6 cells/well
- Amount of protein produced, 2 (CHO DP-12 [2]; 0.26 mM GEK): 12.6 mg/L
- Viability, 3 (CHO DP-12 [2]; 0.26 mM GEK): 96%
- Viable cell count, 3 (CHO DP-12 [2]; 0.26 mM GEK): 1.6 ×10^6 cells/well
- Amount of protein produced, 3 (CHO DP-12 [2]; 0.26 mM GEK): 12.7 mg/L
- Viability, Average (CHO DP-12 [2]; 0.51 mM GEK): 96.7%
- Viable cell count, Average (CHO DP-12 [2]; 0.51 mM GEK): 1.6 ×10^6 cells/well
- Amount of protein produced, Average (CHO DP-12 [2]; 0.51 mM GEK): 12.9 mg/L
- Viability, 1 (CHO DP-12 [2]; 0.51 mM GEK): 95%
- Viable cell count, 1 (CHO DP-12 [2]; 0.51 mM GEK): 1.5 ×10^6 cells/well
- Amount of protein produced, 1 (CHO DP-12 [2]; 0.51 mM GEK): 12.8 mg/L
- Viability, 2 (CHO DP-12 [2]; 0.51 mM GEK): 98%
- Viable cell count, 2 (CHO DP-12 [2]; 0.51 mM GEK): 1.7 ×10^6 cells/well
- Amount of protein produced, 2 (CHO DP-12 [2]; 0.51 mM GEK): 13.2 mg/L
- Viability, 3 (CHO DP-12 [2]; 0.51 mM GEK): 97%
- Viable cell count, 3 (CHO DP-12 [2]; 0.51 mM GEK): 1.6 ×10^6 cells/well
- Amount of protein produced, 3 (CHO DP-12 [2]; 0.51 mM GEK): 12.6 mg/L
- Viability, Average (CHO DP-12 [2]; 1.0 mM GEK): 96.7%
- Viable cell count, Average (CHO DP-12 [2]; 1.0 mM GEK): 1.5 ×10^6 cells/well
- Amount of protein produced, Average (CHO DP-12 [2]; 1.0 mM GEK): 13.1 mg/L
- Viability, 1 (CHO DP-12 [2]; 1.0 mM GEK): 97%
- Viable cell count, 1 (CHO DP-12 [2]; 1.0 mM GEK): 1.3 ×10^6 cells/well
- Amount of protein produced, 1 (CHO DP-12 [2]; 1.0 mM GEK): 12.4 mg/L
- Viability, 2 (CHO DP-12 [2]; 1.0 mM GEK): 97%
- Viable cell count, 2 (CHO DP-12 [2]; 1.0 mM GEK): 1.8 ×10^6 cells/well
- Amount of protein produced, 2 (CHO DP-12 [2]; 1.0 mM GEK): 12.8 mg/L
- Viability, 3 (CHO DP-12 [2]; 1.0 mM GEK): 96%
- Viable cell count, 3 (CHO DP-12 [2]; 1.0 mM GEK): 1.4 ×10^6 cells/well
- Amount of protein produced, 3 (CHO DP-12 [2]; 1.0 mM GEK): 14.1 mg/L
- Viability, Average (CHO DP-12 [2]; 2.05 mM GEK): 96.7%
- Viable cell count, Average (CHO DP-12 [2]; 2.05 mM GEK): 1.9 ×10^6 cells/well
- Amount of protein produced, Average (CHO DP-12 [2]; 2.05 mM GEK): 17.0 mg/L
- Viability, 1 (CHO DP-12 [2]; 2.05 mM GEK): 96%
- Viable cell count, 1 (CHO DP-12 [2]; 2.05 mM GEK): 1.9 ×10^6 cells/well
- Amount of protein produced, 1 (CHO DP-12 [2]; 2.05 mM GEK): 17.5 mg/L
- Viability, 2 (CHO DP-12 [2]; 2.05 mM GEK): 96%
- Viable cell count, 2 (CHO DP-12 [2]; 2.05 mM GEK): 2.2 ×10^6 cells/well
- Amount of protein produced, 2 (CHO DP-12 [2]; 2.05 mM GEK): 17.7 mg/L
- Viability, 3 (CHO DP-12 [2]; 2.05 mM GEK): 98%
- Viable cell count, 3 (CHO DP-12 [2]; 2.05 mM GEK): 1.4 ×10^6 cells/well
- Amount of protein produced, 3 (CHO DP-12 [2]; 2.05 mM GEK): 15.6 mg/L
- Viability, Average (CHO DP-12 [2]; 4.1 mM GEK): 97.0%
- Viable cell count, Average (CHO DP-12 [2]; 4.1 mM GEK): 1.7 ×10^6 cells/well
- Amount of protein produced, Average (CHO DP-12 [2]; 4.1 mM GEK): 13.3 mg/L
- Viability, 1 (CHO DP-12 [2]; 4.1 mM GEK): 97%
- Viable cell count, 1 (CHO DP-12 [2]; 4.1 mM GEK): 1.8 ×10^6 cells/well
- Amount of protein produced, 1 (CHO DP-12 [2]; 4.1 mM GEK): 13.9 mg/L
- Viability, 2 (CHO DP-12 [2]; 4.1 mM GEK): 98%
- Viable cell count, 2 (CHO DP-12 [2]; 4.1 mM GEK): 1.8 ×10^6 cells/well
- Amount of protein produced, 2 (CHO DP-12 [2]; 4.1 mM GEK): 13.2 mg/L
- Viability, 3 (CHO DP-12 [2]; 4.1 mM GEK): 96%
- Viable cell count, 3 (CHO DP-12 [2]; 4.1 mM GEK): 1.5 ×10^6 cells/well
- Amount of protein produced, 3 (CHO DP-12 [2]; 4.1 mM GEK): 12.8 mg/L
- amount of protein produced as compared to the basal medium (total synthesis medium) (CHO DP-12 [2]; in words): the amount of protein produced also tended to increase
- cell viability as compared to the basal medium (total synthesis medium) (CHO DP-12 [2]; in words): the cell viability was similarly high
- viable cell count as compared to the basal medium (total synthesis medium) (CHO DP-12 [2]; in words): the viable cell count increased
